The term IC50 denotes the concentration needed to halve the response being measured. A word on the melting point: it is the temperature, or range, at which the solid turns liquid.

Where two headings read alike, the source gives them in different places.

This is an account of results in patent US20130165428A1, “XANTHINE DERIVATIVES, THE PREPARATION THEREOF AND THEIR USE AS PHARMACEUTICAL COMPOSITIONS” (Boehringer Ingelheim Pharma GmbH & Co. KG, priority 2001, published 2013).

One data set addresses T1, DPP-IV (Homo sapiens, UniProt P27487).
T1 construct: an extract of the human colon carcinoma cell line Caco-2 is used as the DPP IV source; host or cells: Caco-2 (differentiated to induce DPP-IV expression), Nonidet-P40 solubilised extract
Kind of data set: DPP-IV assay with extract of Caco-2 cells as DPP IV source. To be noted: read-out: DPP IV inhibition IC50. It counts as biochemical. As to the method:
This cell line was obtained from the American Type Culture Collection (ATCC HTB 37). […] The cell extract was obtained from cells solubilised in a buffer (10 mM Tris HCl, 0.15 M NaCl, 0.04 t.i.u. aprotinin, 0.5% Nonidet-P40, pH 8.0) by centrifugation at 35,000 g for 30 minutes at 4° C. (to remove cell debris).
The DPP-IV assay was carried out as follows:
50 μl of substrate solution (AFC; AFC is amido-4-trifluoromethylcoumarin), final concentration 100 μM, were placed in black microtitre plates. 20 μl of assay buffer (final concentrations 50 mM Tris HCl pH 7.8, 50 mM NaCl, 1% DMSO) was pipetted in. The reaction was started by the addition of 30 μl of solubilised Caco-2 protein (final concentration 0.14 μg of protein per well). The test substances under investigation were typically added prediluted to 20 μl, while the volume of assay buffer was then reduced accordingly. The reaction was carried out at ambient temperature, the incubation period was 60 minutes. […] Dummy values (corresponding to 0% activity) were obtained in mixtures with no Caco-2 protein (volume replaced by assay buffer), control values (corresponding to 100% activity) were obtained in mixtures without any added substance.

A further data set has as its system rats. The experiment in a line: Tolerability after oral administration in rats. To be noted: oral administration of 30 mg/kg. Type of data set: in vivo.
[1] abbreviates: extract of human colon carcinoma cell line Caco-2 as DPP IV source, substrate AFC 100 μM, 60 minutes, ambient temperature.

T1 sequence (P27487 whole entry): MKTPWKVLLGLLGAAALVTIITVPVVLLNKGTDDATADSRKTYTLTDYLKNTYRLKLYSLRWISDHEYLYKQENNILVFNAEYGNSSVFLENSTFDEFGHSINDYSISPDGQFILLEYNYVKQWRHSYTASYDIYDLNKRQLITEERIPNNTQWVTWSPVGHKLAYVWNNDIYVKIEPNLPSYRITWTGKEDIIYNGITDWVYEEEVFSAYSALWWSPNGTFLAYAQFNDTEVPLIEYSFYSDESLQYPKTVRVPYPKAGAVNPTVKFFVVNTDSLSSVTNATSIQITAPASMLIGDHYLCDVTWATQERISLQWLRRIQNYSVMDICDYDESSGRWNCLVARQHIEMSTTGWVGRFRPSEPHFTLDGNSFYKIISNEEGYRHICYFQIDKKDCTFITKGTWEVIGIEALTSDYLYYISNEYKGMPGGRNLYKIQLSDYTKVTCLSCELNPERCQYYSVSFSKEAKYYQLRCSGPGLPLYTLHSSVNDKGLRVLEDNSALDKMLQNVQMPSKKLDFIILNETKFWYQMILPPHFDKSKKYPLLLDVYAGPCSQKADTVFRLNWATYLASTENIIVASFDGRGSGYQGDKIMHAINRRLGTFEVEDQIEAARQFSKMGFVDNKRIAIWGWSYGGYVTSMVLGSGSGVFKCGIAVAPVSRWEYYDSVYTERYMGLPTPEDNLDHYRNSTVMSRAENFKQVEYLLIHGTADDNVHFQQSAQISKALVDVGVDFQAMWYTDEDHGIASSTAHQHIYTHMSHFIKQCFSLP

In the case of `CC(C)=CCn1c(N2CCCC(N)C2)nc2c1c(=O)n(CCO)c(=O)n2C` (stereo not shown) [1(27), 1-(2-hydroxyethyl)-3-methyl-7-(3-methyl-2-buten-1-yl)-8-(3-amino-piperidin-1-yl)-xanthine], the IC50 on DPP-IV (setting [1]) turned out to be 0.125 µM.

Take `COCCn1c(=O)c2c(nc(N3CCCC(N)C3)n2CC=C(C)C)n(C)c1=O` (stereo not shown) [1(28), 1-(2-methoxyethyl)-3-methyl-7-(3-methyl-2-buten-1-yl)-8-(3-amino-piperidin-1-yl)-xanthine]: the half-inhibitory concentration (IC50) at DPP-IV (setting [1]) worked out at 0.166 µM.

With `CC(C)=CCn1c(N2CCCC(N)C2)nc2c1c(=O)n(CCN(C)C)c(=O)n2C` (stereo not shown) [1(30), 1-[2-(dimethylamino)ethyl]-3-methyl-7-(3-methyl-2-buten-1-yl)-8-(3-amino-piperidin-1-yl)-xanthine], the IC50 on DPP-IV (setting [1]) came out at 2.05 µM.

Regarding `CCn1c(=O)n(C)c(=O)c2c1nc(N1CCCC(N)C1)n2Cc1ccccc1` (stereo not shown) [1(34), 1-methyl-3-ethyl-7-benzyl-8-(3-amino-piperidin-1-yl)-xanthine], the IC50 at DPP-IV (setting [1]) was 0.205 µM.

On to `CC(C)=CCn1c(N(C)CCN)nc2c1c(=O)n(C)c(=O)n2C` [1(35), 1,3-dimethyl-7-(3-methyl-2-buten-1-yl)-8-[N-(2-aminoethyl)-methylamino]-xanthine], for which, on DPP-IV (setting [1]), the IC50 came to 0.095 µM.

For `CC(C)=CCn1c(N2CCCC(N)C2)nc2c1c(=O)n(CCc1cccc(C)c1)c(=O)n2C` (stereo not shown) [1(55), 1-[2-(3-methyl-phenyl)-ethyl]-3-methyl-7-(3-methyl-2-buten-1-yl)-8-(3-amino-piperidin-1-yl)-xanthine], the IC50 on DPP-IV (setting [1]) worked out at 0.142 µM.

As for `CC(C)=CCn1c(N2CCCC(N)C2)nc2c1c(=O)n(CCc1ccccn1)c(=O)n2C` (stereo not shown) [1(60), 1-[2-(pyridin-2-yl)-ethyl]-3-methyl-7-(3-methyl-2-buten-1-yl)-8-(3-amino-piperidin-1-yl)-xanthine], the melting point was 117 to 120 °C. On DPP-IV (setting [1]), the IC50 came out at 0.057 µM.

For `Cc1cccc(-n2c(N3CCCC(N)C3)nc3c2c(=O)n(C)c(=O)n3C)c1` (stereo not shown) [1(62), 1,3-dimethyl-7-(3-methyl-phenyl)-8-(3-amino-piperidin-1-yl)-xanthine], the IC50 at DPP-IV (setting [1]) was found to be 0.167 µM.

On to `Cn1c(=O)c2c(nc(N3CCCC(N)C3)n2Cc2ccccc2)n(CCc2ccccc2)c1=O` (stereo not shown) [1(70), 1-methyl-3-(2-phenyl-ethyl)-7-benzyl-8-(3-amino-piperidin-1-yl)-xanthine], for which the IC50 on DPP-IV (setting [1]) was 0.032 µM.

For the compound `CC(C)=CCn1c(N2CCCNCC2)nc2c1c(=O)n(CCc1ccccc1)c(=O)n2C` [1(97), 1-(2-phenyl-ethyl)-3-methyl-7-(3-methyl-2-buten-1-yl)-8-(homopiperazin-1-yl)-xanthine], the IC50 on DPP-IV (setting [1]) was 0.212 µM.

For the compound `Cn1c(=O)c2c(nc(N3CCCC(N)C3)n2Cc2ccccc2C#N)n(C)c1=O` (stereo not shown) [1(121), 1,3-dimethyl-7-(2-cyano-benzyl)-8-(3-amino-piperidin-1-yl)-xanthine], the IC50 at DPP-IV (setting [1]) was 0.01 µM.

`CC(C)=CCn1c(N2CCC[C@H](N)C2)nc2c1c(=O)n(CCc1cccc(O)c1)c(=O)n2C` [2(22), 1-[2-(3-hydroxy-phenyl)-ethyl]-3-methyl-7-(3-methyl-2-buten-1-yl)-8-((S)-3-amino-piperidin-1-yl)-xanthine] came in with a melting point of 168 to 170 °C. Further, the IC50 on DPP-IV (setting [1]) is 0.066 µM.

Consider `CC(C)=CCn1c(N2CCCC(N)C2)nc2c1c(=O)n(C)c(=O)n2CC(=O)c1ccccc1` (stereo not shown) [2(56), 1-methyl-3-(2-phenyl-2-oxo-ethyl)-7-(3-methyl-2-buten-1-yl)-8-(3-amino-piperidin-1-yl)-xanthine], for which the IC50 on DPP-IV (setting [1]) came to 0.064 µM.

Take `CC(C)=CCn1c(N2CCCC(N)C2)nc2c1c(=O)n(C)c(=O)n2CCc1ccc(F)cc1` (stereo not shown) [2(77), 1-methyl-3-[2-(4-fluoro-phenyl)-ethyl]-7-(3-methyl-2-buten-1-yl)-8-(3-amino-piperidin-1-yl)-xanthine]: at DPP-IV (setting [1]), the IC50 was 0.022 µM.

`C#CCOc1cccc(C(=O)Cn2c(=O)c3c(nc(N4CCCC(N)C4)n3CC=C(C)C)n(C)c2=O)c1` (stereo not shown) [2(85), 1-{2-oxo-2-[3-(2-propyn-1-yloxy)-phenyl]-ethyl}-3-methyl-7-(3-methyl-2-buten-1-yl)-8-(3-amino-piperidin-1-yl)-xanthine]: the IC50 on DPP-IV (setting [1]) came out at 0.017 µM.

As to `CC(C)=CCn1c(N2CCCC(N)C2)nc2c1c(=O)n(CC(=O)c1cccc(OCC#N)c1)c(=O)n2C` (stereo not shown) [2(88), 1-[2-(3-cyanomethoxy-phenyl)-2-oxo-ethyl]-3-methyl-7-(3-methyl-2-buten-1-yl)-8-(3-amino-piperidin-1-yl)-xanthine], the IC50 on DPP-IV (setting [1]) came to 0.006 µM.

As to `CC(C)=CCn1c(N2CCCC(N)C2)nc2c1c(=O)n(Cc1ccccn1)c(=O)n2C` (stereo not shown) [2(113), 1-[(pyridin-2-yl)methyl]-3-methyl-7-(3-methyl-2-buten-1-yl)-8-(3-amino-piperidin-1-yl)-xanthine], the IC50 on DPP-IV (setting [1]) was 0.02 µM.

As for `CC(C)=CCn1c(N2CCCC(N)C2)nc2c1c(=O)n(Cc1cccc3ccccc13)c(=O)n2C` (stereo not shown) [2(127), 1-[(1-naphthyl)methyl]-3-methyl-7-(3-methyl-2-buten-1-yl)-8-(3-amino-piperidin-1-yl)-xanthine], the IC50 on DPP-IV (setting [1]) came out at 0.022 µM.

With `CC(C)=CCn1c(N(C)CC(N)C(=O)N(C)C)nc2c1c(=O)n(C)c(=O)n2C` (stereo not shown) [2(131), 1,3-dimethyl-7-(3-methyl-2-buten-1-yl)-8-[N-(2-amino-3-dimethylamino-3-oxo-propyl)-N-methyl-amino]-xanthine×trifluoroacetic acid], the IC50 at DPP-IV came out at 0.127 µM.

Take `CC(C)=CCn1c(N2CCCC(N)C2)nc2c1c(=O)n(CC(=O)c1ccccc1N)c(=O)n2C` (stereo not shown) [2(136), 1-[2-(2-amino-phenyl)-2-oxo-ethyl]-3-methyl-7-(3-methyl-2-buten-1-yl)-8-(3-amino-piperidin-1-yl)-xanthine]: the IC50 at DPP-IV (setting [1]) stood at 0.003 µM.

In the case of `Cn1c(=O)c2c(nc(N3CCCC(N)C3)n2Cc2ccccc2)n(C)c1=O` (stereo not shown) [Example 1(2), 1,3-dimethyl-7-benzyl-8-(3-amino-piperidin-1-yl)-xanthine], the “toxic side effects / tolerability” value in the data set with rats was “no toxic side effects could be detected”.

`Cn1c(=O)c2c(nc(N3CCCC(N)C3)n2Cc2ccccc2)n(CC(=O)O)c1=O` (stereo not shown) [Example 6, 1-methyl-3-carboxymethyl-7-benzyl-8-(3-amino-piperidin-1-yl)-xanthine] registered a melting point of 212 to 215 °C. Moreover, the IC50 at DPP-IV (setting [1]) turned out to be 0.055 µM.
